These results are taken from US11248243B2, “Process for the biological production of methacrylic acid and derivatives thereof” (MITSUBISHI CHEMICAL UK LIMITED, priority 2015, dated 2022).

One test deals with acyl-CoA synthetase AcsA. The note with it: published value, cited from earlier work.
The target of test [1] is T1, short chain acyl-CoA oxidase (ACX4) (Arabidopsis thaliana, UniProt Q96329).
T1 construct: made in house; host or cells: E. coli BL21 (DE3) pLysS pET20b(+)::ACX4, cell free extract
T1 sequence (Q96329 1-436): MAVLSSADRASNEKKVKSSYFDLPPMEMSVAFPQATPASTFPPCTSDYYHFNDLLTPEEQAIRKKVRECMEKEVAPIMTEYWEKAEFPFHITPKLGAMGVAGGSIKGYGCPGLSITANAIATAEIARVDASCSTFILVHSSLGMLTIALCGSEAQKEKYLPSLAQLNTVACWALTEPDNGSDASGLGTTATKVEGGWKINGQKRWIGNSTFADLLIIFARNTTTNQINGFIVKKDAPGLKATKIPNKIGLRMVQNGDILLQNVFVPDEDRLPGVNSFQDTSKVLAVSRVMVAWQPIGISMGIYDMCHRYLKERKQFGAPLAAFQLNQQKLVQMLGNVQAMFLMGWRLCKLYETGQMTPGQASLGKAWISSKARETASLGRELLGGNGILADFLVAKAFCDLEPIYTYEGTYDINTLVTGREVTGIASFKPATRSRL
The experiment in a line: Activity test of ACX4 cell free extract, HPLC analysis. Type of test: biochemical. The note with it: ACX4 cell free extract 0.8 mg/ml, isobutyryl-CoA 500 μM, FAD 10 μM, HEPES pH 7.5, 30° C., 30 min. The protocol:
To prepare a cell free extract of the ACX4 enzyme, one of the cell pellets that was prepared previously was re-suspended in HEPES (50 mM, pH 7.5) buffer (6 ml) that was supplemented with flavin adenine dinucleotide (FAD) at a final concentration of 10 μM. The re-suspended cells were then lysed in a Constant Systems One Shot cell disrupter. The lysate was centrifuged at 18,000 g for 15 min at 4° C. and the supernatant of this was further centrifuged at […] for 60 min at 4° C. The supernatant was concentrated in a VivaSpin Viva6 10,000 Molecular Weight Cut-Off centrifugal concentrator, centrifuging at 10,000 g at 18° C. until a six-fold volume reduction of the retentate. […] The total protein concentration in the retentate was determined using the BioRad DC protein assay kit, using bovine serum albumin as the protein standard. […]
The activity test of ACX4 was performed in 1.5 ml micro-centrifuge tubes. […] The reaction was incubated at 30° C. in the 1.5 ml micro-centrifuge tube, with shaking at 250 rpm for 30 min and the final reaction product was analysed by analytical HPLC (FIG. 5). […]
In order to confirm that the methacrylyl-CoA peak was genuine, and that it was not an isobutyryl-CoA peak with a shifted elution time, the sample was spiked with isobutyryl-CoA and analysed by HPLC again. […]

The target of test [2] is T2, 4-hydroxybenzoyl-CoA thioesterase (4HBT) (Arthrobacter sp, UniProt Q04416).
T2 construct: made in house; host or cells: E. coli BL21 (DE3) pLysS pET20b(+)::4HBT, cell free extract
Put plainly: Crude enzymatic assays of 4HBT cell free extract (DTNB, 412 nm). In kind it is biochemical, Arthrobacter sp. strain SU. To be noted: cell free protein extract 1 mg/ml. The protocol:
To prepare a cell free extract of the 4HBT enzyme, one of the cell pellets of E. coli BL21 (DE3) pLysS pET20b(+)::4HBT that was prepared previously was re-suspended in HEPES (50 mM, pH 7.5) assay buffer and lysed in a Constant Systems One Shot cell disrupter. The cell lysate was centrifuged at 18,000 g for 15 min at 4° C. and the supernatant of this was centrifuged at 57,750 g for a further 60 min at 4° C. This supernatant was washed using a VivaSpin Viva6 10,000 Molecular Weight Cut-Off centrifugal concentrator, centrifuging at 10,000 g at 18° C. until a six-fold volume reduction, followed by a six-fold re-dilution in the HEPES assay buffer and a further 6-fold volume reduction in the centrifugal concentrator. The total protein concentration of the cell free extracts from E. coli BL21 (DE3) pLysS pET20b(+)::4HBT overexpression cultures was performed using the BioRad DC assay kit, using bovine serum albumin as the protein standard. The same procedure was followed in order to prepare cell free extracts from a cell pellet of the E. coli BL21 (DE3) pLysS pET20b(+), the negative control strain.
Crude enzymatic assays of 4HBT were performed in cuvettes (1 ml) containing cell free protein extract (1 mg·ml^−1), methacrylyl-CoA (approximately 100 μM), 5′5-dithiobis-(2-nitrobenzoic) acid (DTNB) (500 μM). Reactions were started by the addition of substrate and were monitored at 412 nm. […]

T2 sequence (Q04416 whole entry): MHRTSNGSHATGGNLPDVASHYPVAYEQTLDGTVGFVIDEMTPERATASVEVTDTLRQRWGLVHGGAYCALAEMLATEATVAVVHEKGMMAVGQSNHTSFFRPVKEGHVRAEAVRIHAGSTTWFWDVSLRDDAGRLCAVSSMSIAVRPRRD

As for `CC(C)C(=O)O` [isobutyric acid], in the test with acyl-CoA synthetase AcsA, the “turnover number (kcat)” value is 10.6 s⁻¹. Also, the Km with acyl-CoA synthetase AcsA (read-out: Michaelis constant (Km)) was 140 µM.
For `CC(C)C(=O)SCCNC(=O)CCNC(=O)[C@H](O)C(C)(C)COP(=O)(O)OP(=O)(O)OC[C@H]1O[C@@H](n2cnc3c(N)ncnc32)[C@H](O)[C@@H]1OP(=O)(O)O` [isobutyryl-CoA], the “oxidation of substrate by ACX4” value in test [1] is reported as “oxidises”.
In the case of `C=C(C)C(=O)SCCNC(=O)CCNC(=O)[C@H](O)C(C)(C)COP(=O)(O)OP(=O)(O)OC[C@H]1O[C@@H](n2cnc3c(N)ncnc32)[C@H](O)[C@@H]1OP(=O)(O)O` [methacrylyl-CoA], the “substrate selectivity of 4HBT” value in test [2] (methacrylyl-CoA versus isobutyryl-CoA) is reported as “selectivity for methacrylyl-CoA over isobutyryl-CoA”. Also, the “hydrolysis of substrate by 4HBT” value in test [2] (substrate approximately 100 μM, DTNB 500 μM) is reported as “catalysed the hydrolysis”.
